Structures can show the parent of a compound that is named as a salt. Where two headings read alike, the source gives them in different places.
Key:
cocaine seeking = tested on: cocaine seeking; parameters: method as in Giuliano et al. [2013]; details: ref Giuliano et al. [2013]; cited from earlier work
MOPr [1] = biological target: T1, MOPr (Homo sapiens, UniProt P35372); test: Antagonism of Met-Enk-stimulated [35S]GTPγS binding, CHO membranes overexpressing MOPr (SPA, antagonist mode); format: biochemical
T1 sequence (P35372 whole entry): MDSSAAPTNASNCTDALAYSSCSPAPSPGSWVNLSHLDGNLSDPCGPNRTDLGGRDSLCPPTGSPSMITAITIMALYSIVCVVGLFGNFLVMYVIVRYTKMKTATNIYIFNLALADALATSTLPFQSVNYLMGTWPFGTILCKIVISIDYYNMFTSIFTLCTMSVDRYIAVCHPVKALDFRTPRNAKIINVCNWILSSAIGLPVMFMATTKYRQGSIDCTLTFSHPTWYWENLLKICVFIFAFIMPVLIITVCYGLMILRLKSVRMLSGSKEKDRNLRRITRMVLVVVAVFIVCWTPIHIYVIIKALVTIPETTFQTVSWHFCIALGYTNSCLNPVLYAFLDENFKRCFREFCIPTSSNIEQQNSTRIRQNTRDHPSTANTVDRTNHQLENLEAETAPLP

MOPr [2] = biological target: T1, MOPr; test: [3H]naloxone competition displacement binding, MOPr-HEK293 membranes
MOPr [3] = biological target: T1, MOPr; test: [3H]naloxone dissociation kinetics from MOPr, MOPr-HEK293 membranes; format: binding; details: drug 1 μM
human NOPr = human NOPr (Homo sapiens, UniProt P41146); test: Antagonism of nociceptin-stimulated [35S]GTPγS binding, CHO membranes overexpressing NOPr (SPA, antagonist mode); format: biochemical
Sequence of human NOPr (P41146 whole entry): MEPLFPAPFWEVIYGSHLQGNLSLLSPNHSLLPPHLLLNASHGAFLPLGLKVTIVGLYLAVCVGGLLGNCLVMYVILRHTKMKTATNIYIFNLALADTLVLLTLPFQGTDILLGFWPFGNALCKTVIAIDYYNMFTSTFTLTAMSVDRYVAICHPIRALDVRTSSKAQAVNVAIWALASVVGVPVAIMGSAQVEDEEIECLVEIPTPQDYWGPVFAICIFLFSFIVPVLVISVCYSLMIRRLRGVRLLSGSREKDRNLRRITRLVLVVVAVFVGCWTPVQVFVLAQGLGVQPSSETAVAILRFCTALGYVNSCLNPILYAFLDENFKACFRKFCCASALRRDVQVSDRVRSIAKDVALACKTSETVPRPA

MOPr [4] = biological target: T1, MOPr; test: Basal [35S]GTPγS binding, membranes from CHO cells expressing a low level of MOPr; format: biochemical; details: 1 μM, CHO MOPr approximately 70 fmol per milligram of protein
MOPr [5] = biological target: T1, MOPr; test: Basal [35S]GTPγS binding, CHO membranes overexpressing MOPr (agonist mode); format: biochemical
human DOPr = human DOPr (Homo sapiens, UniProt P41143); test: Antagonism of Met-Enk-stimulated [35S]GTPγS binding, CHO membranes overexpressing DOPr (SPA, antagonist mode); format: biochemical
Sequence of human DOPr (P41143 whole entry): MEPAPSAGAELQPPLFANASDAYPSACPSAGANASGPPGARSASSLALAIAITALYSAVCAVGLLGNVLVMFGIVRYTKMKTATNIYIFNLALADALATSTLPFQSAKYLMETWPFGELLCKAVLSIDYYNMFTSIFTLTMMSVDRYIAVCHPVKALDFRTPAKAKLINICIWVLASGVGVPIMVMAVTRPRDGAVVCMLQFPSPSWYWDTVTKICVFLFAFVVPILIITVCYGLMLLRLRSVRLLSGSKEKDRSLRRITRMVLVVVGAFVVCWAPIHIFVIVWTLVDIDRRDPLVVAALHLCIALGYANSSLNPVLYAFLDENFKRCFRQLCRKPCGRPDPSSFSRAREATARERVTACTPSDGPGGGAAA

human KOPr = human KOPr (Homo sapiens, UniProt P41145); test: Antagonism of dynorphin-stimulated [35S]GTPγS binding, CHO membranes overexpressing KOPr (SPA, antagonist mode); format: biochemical
Sequence of human KOPr (P41145 whole entry): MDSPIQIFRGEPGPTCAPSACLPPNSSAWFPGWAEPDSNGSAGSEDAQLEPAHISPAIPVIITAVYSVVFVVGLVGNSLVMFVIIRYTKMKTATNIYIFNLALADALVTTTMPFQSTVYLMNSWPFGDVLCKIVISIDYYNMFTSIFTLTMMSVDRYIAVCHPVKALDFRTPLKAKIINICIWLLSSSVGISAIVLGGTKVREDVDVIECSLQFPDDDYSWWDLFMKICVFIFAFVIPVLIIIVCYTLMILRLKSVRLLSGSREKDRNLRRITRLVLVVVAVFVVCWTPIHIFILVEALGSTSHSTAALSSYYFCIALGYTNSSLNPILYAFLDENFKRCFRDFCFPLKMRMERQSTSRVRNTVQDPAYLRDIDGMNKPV

heroin seeking = tested on: heroin seeking; parameters: method as in Giuliano et al. [2013]; details: ref Giuliano et al. [2013]; cited from earlier work
[6] = biological target: MOPr in mouse brain membranes (Mus musculus, UniProt P42866); test: Basal [35S]GTPγS binding, whole mouse brain membranes (naive or morphine-pretreated mice); format: biochemical; details: 1 μM
Sequence of MOPr in mouse brain membranes (P42866 whole entry): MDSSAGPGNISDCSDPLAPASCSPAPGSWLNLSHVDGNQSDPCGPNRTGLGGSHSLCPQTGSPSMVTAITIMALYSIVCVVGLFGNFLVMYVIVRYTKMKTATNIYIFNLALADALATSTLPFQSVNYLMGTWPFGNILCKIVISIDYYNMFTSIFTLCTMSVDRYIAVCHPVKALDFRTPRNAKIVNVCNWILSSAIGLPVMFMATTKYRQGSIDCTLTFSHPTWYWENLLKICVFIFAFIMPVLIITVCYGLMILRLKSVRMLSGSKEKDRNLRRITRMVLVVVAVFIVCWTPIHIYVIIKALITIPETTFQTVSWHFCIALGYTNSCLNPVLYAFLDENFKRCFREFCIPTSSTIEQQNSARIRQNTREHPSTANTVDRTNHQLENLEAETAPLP

[7] = tested on: K+ current in rat brain neurons; parameters: method as in Bailey et al. [2009]; details: ref Bailey et al. [2009], read-out: EC50 for activation of the K+ current; cited from earlier work
[8] = from fpKi, GTPγS antagonist mode

Fc1cc(-c2cccc(-c3nc[nH]n3)c2)cc(F)c1CNC1Cc2ccccc2C1.O=P(O)(O)O [GSK1521498, N-{[3,5-difluoro-3′-(1H-1,2,4-triazol-3-yl)-4-biphenylyl]methyl}-2,3-dihydro-1H-inden-2-amine phosphate (1:1)]
greater reduction in cocaine seeking compared to naltrexone 3 mg/kg (cocaine seeking): 2.5 fold | completeness of inhibition of the agonist response at MOPr (MOPr [1]; Met-Enk-stimulated GTPγS binding, CHO overexpressing MOPr): completely antagonize | Ki (MOPr [1]; vs Met-Enk, CHO cells overexpressing MOPr, mean ± SEM of three experiments, read-out: Antagonist potency (fpKi) MOPr (converted)): 0.229 nM | maximum displacement of specific 3H-naloxone binding (MOPr [2]; HEK293 MOPr membranes): 100% | Ki (MOPr [2]; read-out: Affinity of binding (pKi) to MOPr (converted)): 0.417 nM | rate of 3H-naloxone dissociation in the presence of drug (MOPr [3]): unchanged | Ki (human NOPr; vs nociceptin, CHO cells overexpressing NOPr, mean ± SEM of three experiments, read-out: Antagonist potency (fpKi) NOPr (converted)): 257 nM | effect on basal level of GTPγS binding (MOPr [4]): did not modify | inhibition of basal [35S]GTPγS binding (MOPr [5]; CHO membranes highly overexpressing MOPr (Bmax 14,500 fmol/mg protein)): up to 18% | agonist activity when administered alone (MOPr [5]; at any of the opioid receptors, concentrations up to 100 μM): did not show agonist activity | concentrations producing a significant inhibition of basal [35S]GTPγS binding (MOPr [5]; p < 0.001, ANOVA): greater than 0.4 nM | selectivity for MOPr over DOPr (human DOPr; [8]): 14 fold | Ki (human DOPr; vs Met-Enk, CHO cells overexpressing DOPr, mean ± SEM of three experiments, read-out: Antagonist potency (fpKi) DOPr (converted)): 3.16 nM | selectivity for MOPr over KOPr (human KOPr; [8]): 14 fold | Ki (human KOPr; vs dynorphin, CHO cells overexpressing KOPr, mean ± SEM of three experiments, read-out: Antagonist potency (fpKi) KOPr (converted)): 3.31 nM | greater reduction in heroin seeking compared to naltrexone 3 mg/kg (heroin seeking): 5.5 fold | effect on basal [35S]GTPγS binding, naïve mice ([6]; brain membranes from naïve mice): did not reduce | effect on basal [35S]GTPγS binding, severe morphine pre-treatment ([6]; brain membranes, 75 mg morphine pellet sc 3 days): very slight but statistically significant inhibition | effect on basal [35S]GTPγS binding, acute morphine pre-treatment ([6]; brain membranes, morphine 100 mg/kg sc 4 h before sacrifice): did not reduce | effect on basal [35S]GTPγS binding, moderate morphine pre-treatment ([6]; brain membranes, sc morphine at 8-h intervals for 3 days): did not reduce

Oc1ccc2c3c1O[C@H]1[C@H](O)CC[C@@]4(O)[C@@H](C2)N(CC2CC2)CC[C@]314 [6β-Naltrexol, 6-β-naltrexol]
Antagonist potency (fpKi) NOPr (human NOPr; vs nociceptin, CHO cells overexpressing NOPr, mean ± SEM of three experiments): <5

C=C1CC[C@@]2(O)[C@H]3Cc4ccc(O)c5c4[C@@]2(CCN3CC2CC2)[C@H]1O5 [Nalmefene, nalmefene, reference compound]
completeness of inhibition of the agonist response at MOPr (MOPr [1]): did not produce complete inhibition | Ki (human NOPr): > 10000 nM | enhancement of basal [35S]GTPγS binding (MOPr [5]): 20%

CSCC[C@H](NC(=O)[C@H](Cc1ccccc1)NC(=O)CNC(=O)CNC(=O)[C@@H](N)Cc1ccc(O)cc1)C(=O)O [Met-Enk, methionine enkephalin acetate salt hydrate]
EC50 [7]: 1000 nM

— article PMC4281354, “The opioid receptor pharmacology of GSK1521498 compared to other ligands with differential effects on compulsive reward-related behaviours” (Psychopharmacology, 2014)
